Experimental data from paper PMC7217877, “N-AS-triggered SPMs are direct regulators of microglia in a model of Alzheimer’s disease” (Nature Communications, 2020).
“And” between values parts separate entries of the source, which are not always exact repeats. Equal entries are not always repeated.

How the values were obtained:
APP/PS1 mice [1] = assay: microglial recruitment to Aβ plaques (Iba1/ThioS colocalization, Fig 5a); type: in vivo, mouse; settings: APP/PS1 + N-AS; cortex; individual values
Method: Thioflavin S (Sigma-Aldrich) staining was carried out according to previously described procedures. We used 6E10 (mouse, 1:100, Signet, SIG39300), anti-20G10 (mouse, 1:1000, provided by D. R. Howlett, GlaxoSmithKline, Harlow, Essex, UK) for Aβ42, anti-G30 (rabbit, 1:1000, provided by D. R. Howlett) for Aβ40, SMA (mouse, 1:400, Sigma-Aldrich, A2547), AT8 (mouse, 1:500, Thermo Fisher Scientific, MN1020), Caspase-3 (mouse, 1:200, Novus Biologicals, NB100-56708), ac-S565 (rabbit, 1:100), COX2 (mouse, 1:250, Thermo Fisher Scientific, 35-8200), Iba1 (rabbit, 1:500, Wako, 019-19941 and goat, Abcam, ab5076), NeuN (mouse, 1:500, Millipore, MAB177), GFAP (rabbit, 1:500, Dako, N1506 and chicken, 1:500, Abcam, ab4674), and Lamp1 (mouse, 1:200, Abcam, ab24170). The sections were analyzed with a laser-scanning confocal microscope (FV3000; Olympus) or with a BX51 microscope (Olympus). MetaMorph software (Molecular Devices) was used to quantification. Three-dimensional reconstruction of microglia was recorded and analyzed using IMARIS software (Bitplane)[11]. For the analysis of age-dependent microglial COX2^+ CX3CR1^+ cells in WT and APP/PS1 mice, COX2 (rabbit, 1:100, Abcam, ab15191) and CX3CR1 (mouse, 1:100, BioLegend, 149008) antibody were used and the images were acquired on Alexa 488 and APC Channel with performed using Operetta CLS and Analysis Software 4.5 (Perkin-Elmer). […]

APP/PS1 mice [2] = assay: flow cytometry of blood immune cells (Supplementary Fig 5e-i); type: in vivo, mouse; design: CD11b+ CD115+ Ly6Chi / CD11b+ CD115+ Ly6Clow / CD115low Ly6Chi Ly6Ghi / CD4+ T cell / B220+ B cell: unit not given here
Method: Transgenic mouse lines over-expressing the hAPP695swe (APP) and presenilin-1M146V (PS1) mutations were originated from GlaxoSmithKline (Harlow, UK)[32] and maintained as described previously. We purchased 5×FAD mice from Jackson Labs (Stock number. 34840-JAX). Because APP/PS1 and 5xFAD mice show sex differences in disease progression, we used only male mice. To examine possible therapeutic effect of N-AS and aspirin in APP/PS1 mice, the N-AS (30 mg kg^−1, Sigma-Aldrich, 01912) was injected daily s.c. for 8 weeks to 7-months-old APP/PS1 mice until the age of 9 months, and aspirin (2 mg kg^−1, Sigma-Aldrich, A5376)[33] was administrated orally to 7-months-old APP/PS1 mice for 8 weeks. Also, to confirm possible therapeutic efficacy of N-AS in 5×FAD, the N-AS (30 mg kg^−1, Sigma-Aldrich, 01912) was injected daily s.c. for 4 weeks to 3-months-old 5×FAD mice until the age of 4 months. Block randomization method was used to allocate the animals to experimental groups. To eliminate the bias, we were blinded in experimental progress such as data collection and data analysis. Mice were housed at temperature of 22 °C and a 12 h day/12 h night cycle with free access to tap water and food pellets. All protocols were approved by the Kyungpook National University Institutional Animal Care and Use Committee.
Brain microglia polarity and immune cells in brain and blood were analyzed by flow cytometry. Cells from WT, APP/PS1, and APP/PS1 treated with N-AS mice brain were prepared as previously described with minor modifications. Brains of WT, APP/PS1, and APP/PS1 treated with N-AS mice were dissected and immediately transferred in ice-cold HBSS (Gibco). After gentle mincing, the brain was digested in a HBSS solution containing collagenase P (0.2 mg ml^−1, Roche), dispase II (0.8 mg ml^−1, Roche), DNase I (0.01 mg ml^−1, Roche), and collagenase A (0.3 mg ml^−1, Roche) at 37 °C for 1 h under gentle rocking. Digestion was stopped by adding FBS (Gibco) on ice. The supernatants were centrifuged at 250×g for 10 min at 4 °C. The pellet was resuspended in 25% BSA (Gibco)/PBS (Gibco) for myelin removal. Following a centrifugation step at 3000×g for 30 min at 4 °C, the myelin containing supernatant was discarded. The cell pellets were then resuspended in 1 ml of HBSS and filtered through a 40 μm mesh, followed by a washing step in HBSS. The cell pellets were resuspended in 1 ml of red blood cell lysis buffer (BD Biosciences) and incubated at RT for 10 min for lysis of erythrocytes. Subsequently, 2 ml of MACs buffer (Miltenyl Biotec, 130-091-222) was added and centrifuged at 250×g for 10 min at 4 °C. Cells from WT, APP/PS1, and APP/PS1 treated with N-AS mice blood were prepared as previously described with minor modifications. Blood was collected in sodium-heparin tube (BD, 367871) by cardiac puncture. Red blood cells were lysed once at 4 °C for 10 min in 0.15 M NH4Cl ([…] Technologies), washed once with PBS (Gibco), and counted using cell counter (Logos biosystems). […]

CCCCCCCCCCCCC/C=C/[C@@H](O)[C@H](CO)NC(C)=O [N-AS, N-((2S,3R,E)-1,3-Dihydroxyoctadec-4-en-2-yl)acetamide]
Aβ containing /Iba1-positive cells per plaque (APP/PS1 mice [1]): 7.5498 and 5.551 and 5.112 and 5.2638 and 4.818 and 7.514
Aβ-positive Microglia/plaque (APP/PS1 mice [1]): 27.3068 and 32.6682 and 21.5669 and 18.8144 and 22.2826 and 28.6878
anti-inflammatory monocytes in blood (APP/PS1 mice [2]; N-AS vs vehicle APP/PS1): increased anti-inflammatory monocytes
macrophages and pro-inflammatory monocytes in blood (APP/PS1 mice [2]; N-AS vs vehicle APP/PS1): decreased macrophages and pro-inflammatory monocytes
neutrophils in blood (APP/PS1 mice [2]; N-AS vs vehicle APP/PS1): neutrophils showed no differences between the groups
Lin- CD11b+ F4/80hi (APP/PS1 mice [2]; blood, APP/PS1 + N-AS, sFig 5e): 0.31 and 0.35 and 0.29 and 0.33 and 0.3
CD11b+ CD115+ Ly6Chi (APP/PS1 mice [2]; blood, APP/PS1 + N-AS, sFig 5f): 0.3325 and 0.21 and 0.4 and 0.265 and 0.235 and 0.305
CD11b+ CD115+ Ly6Clow (APP/PS1 mice [2]; blood, APP/PS1 + N-AS, sFig 5f): 0.32 and 0.295 and 0.285 and 0.3075
CD115low Ly6Chi Ly6Ghi (APP/PS1 mice [2]; blood, APP/PS1 + N-AS, sFig 5g): 3.9 and 4.5 and 3.15 and 4.65 and 3 and 4.1
B220+ B cell (APP/PS1 mice [2]; blood, APP/PS1 + N-AS, sFig 5i): 5.915 and 5.6 and 6.23 and 6.0725
CD4+ T cell (APP/PS1 mice [2]; blood, APP/PS1 + N-AS, sFig 5h): 3.42 and 3.21 and 3.63 and 3.525
